The text below walks through data of US20230340012A1, “NATURAL AND SYNTHETIC COMPOUNDS FOR TREATING CANCER AND OTHER DISEASES” (PACIFIC ARROW LIMITED, priority 2009, published 2023).

For data set [1], the system named is ANGPT2, DDIT3, LIF and NFKB1Z. The conditions noted are these: Real-time PCR; results in Table 19-21 of PCT/US09/34115; cited from earlier work.
For a further data set, the system named is cancer cells. In words: Inhibition of cancer growth, cancer invasion, cell invasion or cancer cell invasion. Type of data set: cell-based. An excerpt:
The program is based on our purification methods and biological assays including the MTT assay. See International Application No. PCT/US05/31900, filed Sep. 7, 2005, U.S. Serial No. 11/289,142, filed Nov. 28, 2005, and U.S. Serial No. 11/131551, filed May 17, 2005, and PCT/US2008/002086, 1188-ALA-PCT, filed Feb. 15, 2008, 12/344,682, 1020-B1-US, filed Dec. 29, 2008. The details of Analysis of gene expression of ES2 cells after Y-treatment by Microarray, Data Analysis Methods and Western blot in PCT/US2008/002086, 1188-ALA-PCT, filed Feb. 15, 2008, and the cell invasion experiments methods in International Application PCT/US2010/0042240, filed Jul. 16, 2010.

Another data set has as its system Erythrocytes (RBC). In words: The haemolytic assay. The following applies: in words, no concentration given.

Description for Erythrocytes (RBC): Erythrocytes (RBC) were isolated from human blood (EDTA whole blood, collected randomly). 50 ul of the 10% RBC suspension (in PBS) was added to 2 ml of sample solutions (concentration range from 0.1 ug/ml to 400 ug/ml) in PBS. The mixture was vortexed briefly and sat for 60 min at room temperature. The mixture was spun at 3 K for 10 min and the relative amounts of lysed hemoglobin in the supernatant were measured at 540 nm.

For `C/C=C(/C)C(=O)O[C@H]1[C@H](OC(=O)/C(C)=C\C)[C@@]2(CO)C(CC1(C)C)C1=CCC3[C@@]4(C)CC[C@H](O)C(C)(C)C4CC[C@@]3(C)[C@]1(C)[C@@H](O)[C@H]2O` (stereo partly shown) [ACH-Y3], the “expression of the genes ANGPT2, DDIT3, LIF and NFKB1Z” value in data set [1] is given as “increase”. Besides, the “inhibiting cancer growth, cancer invasion, cell invasion or cancer cell invasion” value in the data set on cancer cells is “has the ability to inhibit”. Also, in the data set on Erythrocytes (RBC), the hemolytic activity result is “less potent”.
As for `C/C=C(/C)C(=O)O[C@H]1[C@H](OC(=O)/C(C)=C\C)[C@@]2(CO)C(CC1(C)C)C1=CCC3[C@@]4(C)CC[C@H](O[C@@H]5OC(C(=O)O)[C@@H](O)[C@@H](O[C@@H]6O[C@@H](CO)[C@@H](O)C6O)C5O[C@@H]5OC(CO)[C@H](O)[C@@H](O)C5O)C(C)(C)C4CC[C@@]3(C)[C@]1(C)[C@@H](O)[C@H]2O` (stereo partly drawn) [Compound Y, 3-O-[β-D-galactopyranosyl (1→2)]-α-L-arabinofuranosy (1→3)-β-D-glucuronopyranosyl-21,22-O-diangeloyl-3β, 15α, 16α, 21β, 22α, 28-hexahydroxyolean-12-ene], in data set [1], the “expression of the genes ANGPT2, DDIT3, LIF and NFKB1Z” value is “increase”.
